Source: patent publication US20040116656A1, “Memory-enhancing peptides and the use thereof” (priority 2000, published 2004)

Test system: learning and memory process of mouse (memory and learning impediment induced by scopolamine)
Test: Step-down platform electrical-shock avoidance test of learning and memory (RT, EN) in scopolamine-treated mice
Assay type: in vivo
Conditions: for Memory Results EN / Learning Results EN / Memory Results RT / Learning Results RT: scopolamine 1 mg/kg; for Memory Results EN / Memory Results RT: memory test 24 hrs later; for Learning Results EN / Learning Results RT: training trial
Description: The pharmacological tests of memory-enhancing peptide in this invention have been performed as following: the animals have been divided into three groups: drug administration group, control group and model group, with each group administrated with memory-enhancing peptide, saline and scopolamine respectively. In the test, the groups except control group were injected with scopolamine after the administration of medicine about 50 min., 10 min. later, the training began. First, the animals will be put into reaction box for 3 min. before each trails to familiarize them with the environment. Then, the reaction box are charged with 36V alternating current. When the animal subjects to electrical shock, it will jump up to the central platform to avoid harmful stimulation as a normal response. Most of animals may be return to the copper curdles twice or even more times, but they will jump back to the platform swiftly as the results of electrical shock. Each test trail will be performed for 5 min. and two following indices will be used to represent the learning results: (I) the number of total error (EN) during the whole training period; (2) the reaction time (RT) for the first returning to the copper curdle in the trail. The trails will repeat again 24 hrs later as memory test.

## C/C=C1\[C@H]2C=C(C)C[C@]1(N)c1ccc(=O)[nH]c1C2 [Huperzine A, reference compound]
Huperzine A 100 μg/kg
  Memory Results EN: 0.9
Huperzine A 100 μg/kg, number of total errors
  Learning Results EN: 1.3

## PyroGlu—Asn—Cys(S—Bu^t)—Pro—Arg [MEP-531]
0.5 μg and 1 μg/kg, longer incubation period and lesser error numbers, P<0.01 vs model group
  Effect on memory and learning impediment induced by scopolamine, compared with model group: obviously improve the memory and learning impediment induced by scopolamine
0.5 μg/kg and 1 μg/kg versus Huperzine A 100 μg/kg
  Effect on scopolamine-induced memory and learning impediment compared with Huperzine A: better effects than Huperzine A
Drug dosage 0.25 μg/kg
  Memory Results EN: 0.9
  Memory Results RT: 197.6 s
  Learning Results EN: 0.3
  Learning Results RT: 78.8 s
Drug dosage 0.5 μg/kg
  Memory Results EN: 0.5
  Memory Results RT: 245.5 s
  Learning Results EN: 0.2
  Learning Results RT: 241.6 s
Drug dosage 1 μg/kg
  Memory Results EN: 0.3
  Memory Results RT: 282.8 s
  Learning Results EN: 0.3
  Learning Results RT: 267.6 s
Summary statement, no dose given
  Overall effect on memory and learning impediment induced by scopolamine (results of Table 1): remarkably ameliorate the memory and learning impediment induced by scopolamine
